Assay results: patent publication US20260309717A1, “PROXIMITY INDUCING SYSTEM AND USES THEREOF” (SORBONNE UNIVERSITE, priority 2022, published 2026)

Tests used:
[1] = target: T1, ^FIREmate and ^FIREtag (TOM20-ECFP-^FIREmate / mCherry-^FIREtag) (Halorhodospira halophila, UniProt P16113, A30V/C69G/D97P/F96I, form not given/G21E/G25R/K17N/M100R/M109L/Q41L/Q99S/S72T/T101G/V83A/Y94W/Y98T); test: Recruitment of cytoplasmic mCherry-^FIREtag to mitochondria (TOM20-ECFP-^FIREmate), time-lapse confocal microscopy, HeLa cells; type: cell-based; settings: 10 μM
T1 construct: TOM20(1-34)-ECFP-FIREmate and mCherry-FIREtag in HeLa or U2OS cells
T1 sequence (P16113 1-114 A30V/C69G/D97P/F96I/G21E/G25R/K17N/M100R/M109L/Q41L/Q99S/S72T/T101G/V83A/Y94W/Y98T): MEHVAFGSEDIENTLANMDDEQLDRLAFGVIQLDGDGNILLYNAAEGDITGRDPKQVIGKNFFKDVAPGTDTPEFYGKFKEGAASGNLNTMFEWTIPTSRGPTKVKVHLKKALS
Protocol: FIGS. 3A-E illustrate the recruitment of cytoplasmic proteins to mitochondria with the proximity inducing system described herein. FIG. 3A is a schematic representation of the experimental design wherein HeLa cells co-expressing mCherry-^FIREtag and Tom20-ECFP-^FIREmate were treated with 10 μM of match (either HBR-2,5DM or HMBR), and imaged by time-lapse confocal microscopy. FIGS. 3B-C are graphs showing the temporal evolution of the FIRE signal detected upon addition at 0 min of HBR-2,5DM (match1-3B) or HMBR (match2-3C). Data represents the mean values±SD of 20 cells from n=3 independent experiments (3B, D), or of 10 cells from n=3 independent experiments (3C, E). FIGS. 3D-E are sets of representative confocal micrographs of cells before (0 min) and after (5 min) addition of HBR-2,5DM (match1-3D) or HMBR (match2-3E) (mCherry: ex/em 561/606-675 nm; FIRE: ex/em 488/508-570 nm; ECFP: ex/em 445/455-499 nm). […] Scale bars are 20 μm.
FIGS. 4A-D illustrate the recruitment over time of cytoplasmic proteins to mitochondria with the proximity inducing system described herein. (4A, C) HeLa cells co-expressing mCherry-^FIREtag and Tom20-ECFP-^FIREmate were treated with 10 μM HBR-2,5DM and imaged by time-lapse confocal microscopy at 1 image per 5 seconds. […] FIG. 4C is a graph showing the temporal evolution of the FIRE signal detected in HeLa cells upon addition of HBR-2,5DM at 0 sec. […] FIG. 4D is a graph showing the temporal evolution of the FIRE signal detected in U2OS cells upon addition of HBR-2,5DM at 0 min. […]
The confocal micrographs were acquired on a Zeiss LSM 980 Laser Scanning Microscope equipped with a plan apochromat 63x/1.4 NA oil immersion objective. […] The images were analyzed using Icy (2.4.0.0) and Fiji (Image J). In short, to track fluorescence signal in a specific organelle, a ROI (region of interest) was determined by masking the signal in the ECFP (Enhanced Cyan Fluorescent Protein) channel with the plug-in HK-means with the following parameters: intensity class equals 100, minimum object size (pixels or px) equals 500, maximum object size (px) equals 1500-3000. […]

[2] = target: T2, mCherry-^FIREtag / ^FIREmate-ECFP-Giantin (Halorhodospira halophila, UniProt P16113, A30V/C69G/D97P/F96I, form not given/G21E/G25R/K17N/M100R/M109L/Q41L/Q99S/S72T/T101G/V83A/Y94W/Y98T); test: Reversibility of the ternary assembly (washout), time-lapse spinning-disk confocal microscopy, HeLa cells; type: cell-based; settings: 10 μM
T2 construct: FIREmate-ECFP-Giantin(3131-3259) and mCherry-FIREtag in HeLa cells
T2 sequence (P16113 1-114 A30V/C69G/D97P/F96I/G21E/G25R/K17N/M100R/M109L/Q41L/Q99S/S72T/T101G/V83A/Y94W/Y98T): T1 sequence (P16113 1-114 A30V/C69G/D97P/F96I/G21E/G25R/K17N/M100R/M109L/Q41L/Q99S/S72T/T101G/V83A/Y94W/Y98T)
Protocol: HeLa cells co-expressing mCherry-^FIREtag and ^FIREmate-ECFP-Giantin were treated with 10 μM HBR-2,5DM (match1), washed with HBR-2,5DM-free medium and then treated with 10 μM HBIR-3M. Cells were imaged by time-lapse spinning-disk confocal microscopy. FIGS. 9A-D are sets of representative confocal micrographs of untreated cells (9A), cells after addition of HBR-2,5DM (match1) (9B), cells after washout of HBR-2,5DM (match1) (9C), and cells after addition of HBIR-3M (9D). (mCherry: ex/em 561/606-675 nm; FIRE: ex/em 488/508-570 nm). Scale bars are 10 μm.
To test whether formation of the fluorescent ternary assembly could be reversed though removal of the fluorogen, the fusion proteins mCherry-^FIREtag (red fluorescence) and ^FIREmate-ECFP-Giantin (blue fluorescence) were co-expressed in Hela cells (FIG. 9A). Formation of a fluorescent ternary assembly between ^FIREtag, ^FIREmate and HBR-2,5DM was induced by addition of 10 μM of HBR-2,5DM (FIG. 9B). […] The ability to reverse the fluorescence ternary assembly at will allowed to induce repeated catch and release cycles through sequential addition and removal of HBR-2,5DM. The ability to control protein proximity through addition and removal of a molecular inducer of proximity is unprecedented and opens great prospect to control the proximity of two proteins with high temporal resolution.

Cc1cc(/C=C2\SC(=S)NC2=O)c(C)cc1O [HBR-2,5DM, (Z)-5-(4-hydroxy-2,5-dimethylbenzylidene)-2-thioxo-1,3-thiazolidin-4-one]
half-time of formation of the ternary fluorescent assembly ([1]; 1 image per 5 seconds): about 20 seconds
translocation of mCherry-^FIREtag from cytosol to mitochondria ([1]; 5 min): very rapid translocation of the mCherry-^FIREtag fusion protein from the cytosol to mitochondria
FIRE signal (fluorescence) at the mitochondria ([1]; ex/em 488/508-570 nm): simultaneous appearance of a strong green fluorescent signal
dissociation of the fluorescent ternary assembly after washout ([2]; then washing with HBR-2,5DM-free medium): rapid dissociation of the fluorescent ternary assembly
reversibility of the fluorescent ternary assembly ([2]; then washout): full reversibility
